# In patent publication US10294214B2, “Positive allosteric modulators of human melanocortin-4 receptor” (Vanderbilt University, priority 2016, dated 2019):
# Molecular target: hMC4R (Homo sapiens (Human), UniProt P32245)
# Assay: LANCE cAMP assay, hMC4R PAM
# Assay type: cell-based
# Conditions: HEK293 cells stably expressing the hMC4R; α-MSH at an EC20 dose
# Protocol: Analysis of pharmacological properties of compounds was performed using the LANCE cAMP kit (Perkin Elmer). HEK293 cells stably expressing the hMC4R were treated with PAM compounds at doses indicated, then incubated with an Alexa Fluor 647-labeled antibody in stimulation buffer according to manufacturer's instructions for 30 min at RT. Next, α-MSH was added (at an EC20 dose or at doses indicated for concentration-response curves), and plates were incubated for 15 minutes at RT, followed by the addition of 10 μL of detection mix. Plates were then incubated for 30 minutes at RT and read on a Viewlux (Perkin Elmer) using 618 and 671 nm emission filters. IBMX was not included in the assay.
# Sequence of hMC4R (P32245 whole entry): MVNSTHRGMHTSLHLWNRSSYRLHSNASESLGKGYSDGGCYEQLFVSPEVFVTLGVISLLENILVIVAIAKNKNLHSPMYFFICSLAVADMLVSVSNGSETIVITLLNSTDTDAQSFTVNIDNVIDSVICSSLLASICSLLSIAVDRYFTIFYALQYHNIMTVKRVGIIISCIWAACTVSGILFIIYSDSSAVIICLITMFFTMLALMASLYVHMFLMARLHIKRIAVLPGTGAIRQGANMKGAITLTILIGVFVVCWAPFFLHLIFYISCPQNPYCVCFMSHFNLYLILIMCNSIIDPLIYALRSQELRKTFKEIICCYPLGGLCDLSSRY
row,hMC4R PAM LANCE pEC50 Mean,Structure (SMILES)
1,5.9,COC(=O)c1[nH]c2ccccc2c1NC(=O)CN1CCCC2(CCC2)C1 [Example 29]
2,5.8,COC(=O)c1[nH]c2ccc(C)cc2c1NC(=O)CN1CCN(c2cccc(OC)c2)C(C)C1 (stereo not shown) [Example 31]
3,5.9,CC(=O)c1[nH]c2ccccc2c1NC(=O)CN1CCC(Oc2ccccc2)CC1 [Example 52]
4,5.9,COC(=O)c1[nH]c2ccc(C)cc2c1NC(=O)CN1CCN(c2cccc(C)c2C)CC1 [Example 27]
5,6.6,O=C(CN1CCC(C2CCCCC2)CC1)Nc1c(C(=O)C2CC2)[nH]c2ccc(N3CCOCC3)cc12 [Example 66]
6,6.2,COC(=O)c1[nH]c2ccc(Br)cc2c1NC(=O)C(C)N1CCC(Cc2ccccc2)CC1 (stereo not shown) [Example 20]
7,6,COC(=O)c1[nH]c2ccc(Cl)cc2c1NC(=O)C(C)N1CCC(Cc2ccccc2)CC1 (stereo not shown) [Example 78]
8,5.9,COC(=O)c1[nH]c2ccccc2c1NC(=O)C(C)N1CCC(Cc2ccccc2)CC1 (stereo not shown) [Example 30]
9,6.2,O=C(CN1CCC(c2ccccc2)CC1)Nc1c(C(=O)C2CC2)[nH]c2ccccc12 [Example 16]
10,6.2,COC(=O)c1[nH]c2ccc(Cl)cc2c1NC(=O)CN1CCC(Cc2ccccc2)CC1 [Example 21]
11,6.5,CC(=O)c1[nH]c2ccccc2c1NC(=O)CN1CCC(C2CCCC2)CC1 [Example 40]
12,6.3,CC1(C)CCCN(CC(=O)Nc2c(C(=O)C3CC3)[nH]c3ccc(S(C)(=O)=O)cc23)C1 [Example 48]
13,6.7,O=C(CN1CCC(C2CCCC2)CC1)Nc1c(C(=O)C2CC2)[nH]c2ccncc12 [Example 59]
14,6.2,COC(=O)c1[nH]c2ccc(Br)cc2c1NC(=O)CN1CCN(c2ccccc2)CC1 [Example 17]
15,5.7,CC1(C)CCCN(CC(=O)Nc2c(C(=O)C3CC3)[nH]c3ccc(N4CCOCC4)cc23)C1 [Example 53]
16,6.4,CC(=O)c1[nH]c2ccccc2c1NC(=O)C(C)N1CCC(C2CCCC2)CC1 (stereo not shown) [Example 70]
17,6.5,O=C(CN1CCC(c2ccccc2)CC1)Nc1c(C(=O)C2CC2)[nH]c2ccncc12 [Example 67]
18,6.6,O=C(CN1CCC(C2CCCCC2)CC1)Nc1c(C(=O)C2CC2)[nH]c2ccncc12 [Example 62]
19,6.1,CC1(C)CCCN(CC(=O)Nc2c(C(=O)C3CC3)[nH]c3ccccc23)C1 [Example 23]
20,6.3,COC(=O)c1[nH]c2ccccc2c1NC(=O)CN1CCN(c2cccc(C(F)(F)F)c2)CC1 [Example 12]
21,6.4,Cc1cccc(N2CCN(CC(=O)Nc3c(C(=O)C4CC4)[nH]c4ccc(Br)cc34)CC2)c1C [Example 9]
22,5.8,CCOC(=O)c1[nH]c2ccncc2c1NC(=O)CN1CCCC(C)(C)C1 [Example 28]
23,6.6,CC(=O)c1[nH]c2ccncc2c1NC(=O)CN1CCC(C2CCCC2)CC1 [Example 64]
24,6.2,COC(=O)c1[nH]c2ccccc2c1NC(=O)CN1CCC(N2CCc3ccccc32)CC1 [Example 49]
25,6.4,COC(=O)c1[nH]c2cc(Br)ccc2c1NC(=O)CN1CCN(c2ccc(F)cc2)CC1 [Example 6]
26,5.7,CCOC(=O)c1[nH]c2ncccc2c1NC(=O)CN1CCCC(C)(C)C1 [Example 34]
27,6.4,CC1(C)CCCN(CC(=O)Nc2c(C(=O)C3CC3)[nH]c3ccc(Br)cc23)C1 [Example 7]
28,5.6,COC(=O)c1[nH]c2ccccc2c1NC(=O)CN1CCN(Cc2ccccc2)C(C)(C)C1 [Example 57]

row,hMC4R PAM LANCE pEC50 Mean,Structure (SMILES)
1,5.9,O=C(CN1CCC(c2ccccc2)CC1)Nc1c(C(=O)C2CCC2)[nH]c2ccccc12 [Example 56]
2,6.6,O=C(CN1CCC(C2CCCCC2)CC1)Nc1c(C(=O)C2CC2)[nH]c2ccccc12 [Example 37]
3,6.7,COC(=O)c1[nH]c2ccc(N3CCOCC3C)cc2c1NC(=O)CN1CCC(C2CCCCC2)CC1 (stereo not shown) [Example 60]
4,6,O=C(CN1CCC(C2CC2)CC1)Nc1c(C(=O)C2CC2)[nH]c2ccccc12 [Example 54]
5,6.6,COC(=O)c1[nH]c2ccc(Br)cc2c1NC(=O)CN1CCC(c2ccccc2)CC1 [Example 39]
6,6.3,CC(=O)c1[nH]c2ccncc2c1NC(=O)CN1CCC(C(C)(C)C)CC1 [Example 72]
7,6,COC(=O)c1[nH]c2ccccc2c1NC(=O)CN1CCC(Cc2ccccc2)CC1 [Example 24]
8,5.6,CC(=O)c1[nH]c2ccccc2c1NC(=O)CN1CCN(Cc2ccccc2)CC1 [Example 33]
9,6.2,COC(=O)c1[nH]c2ccc(Br)cc2c1NC(=O)CN1CCC(Cc2ccccc2)CC1 [Example 22]
10,6.5,COC(=O)c1[nH]c2ccccc2c1NC(=O)CN1CCC(c2ccccc2)CC1 [Example 11]
11,6.5,O=C(CN1CCC2(CCCCC2)CC1)Nc1c(C(=O)C2CC2)[nH]c2ccccc12 [Example 65]
12,6.4,O=C(CN1CCC2(CCCC2)CC1)Nc1c(C(=O)C2CC2)[nH]c2ccncc12 [Example 68]
13,6.2,CC(=O)c1[nH]c2ccccc2c1NC(=O)CN1CCC(c2ccccc2)CC1 [Example 19]
14,6.3,COC(=O)c1[nH]c2ccc(Br)cc2c1NC(=O)CN1CCN(c2cccc(OC)c2)C(C)C1 (stereo not shown) [Example 13]
15,6.4,CC(=O)c1[nH]c2ccc(Br)cc2c1NC(=O)CN1CCC(c2ccccc2)CC1 [Example 43]
16,6.4,CC(=O)c1[nH]c2ccc(Br)cc2c1NC(=O)CN1CCC(Cc2ccccc2)CC1 [Example 44]
17,5.8,COC(=O)c1[nH]c2ccccc2c1NC(=O)CN1CCC(Nc2ccccc2)CC1 [Example 55]
18,6.1,CC(=O)c1[nH]c2ccccc2c1NC(=O)CN1CCC(Cc2ccccc2)CC1 [Example 18]
19,6,COC(=O)c1[nH]c2ccccc2c1NC(=O)CN1CCC(Oc2ccccc2)CC1 [Example 25]
20,6,COC(=O)c1[nH]c2ccc(Br)cc2c1NC(=O)CN1CCCCC1 [Example 26]
21,5.8,COC(=O)c1[nH]c2ccc(Br)cc2c1NC(=O)CN1CCSCC1 [Example 36]
22,6.4,CC(C(=O)Nc1c(C(=O)C2CC2)[nH]c2ccccc12)N1CCC(C2CCCC2)CC1 (stereo not shown) [Example 71]
23,5.8,COC(=O)c1[nH]c2ccccc2c1NC(=O)CN1CCC(Oc2ccccn2)CC1 [Example 32]
24,6.2,CC1(C)CCCN(CC(=O)Nc2c(C(=O)C3CC3)[nH]c3ccncc23)C1 [Example 74]
25,5.7,CC1COCCN1c1ccc2[nH]c(C(=O)C3CC3)c(NC(=O)CN3CCCC(C)(C)C3)c2c1 (stereo not shown) [Example 76]
26,6.2,O=C(CN1CCN(Cc2ccccc2)CC1)Nc1c(C(=O)C2CC2)[nH]c2ccc(Br)cc12 [Example 14]
27,6.6,O=C(CN1CCC(C2CCCCC2)CC1)Nc1c(C(=O)C2CC2)[nH]c2ccc(Cl)cc12 [Example 38]
